Structures are written as SMILES. Read-outs that look alike come from different tables or passages of the source.

Data set [1] can be described thus: Pharmacokinetic investigation, oral bioavailability in rats. Format: in vivo. To be noted: plasma, Rat, at 3 mg/kg p.o., read-out: Bioavailability following oral administration. How it is done:
(§1) Pharmacokinetic data were determined after administering various substances i.v. or p.o. as solutions to mice, rats and dogs. For this, blood samples were collected up to 24 hours after administration. The concentrations of the unaltered substance were determined by bioanalytical methods (HPLC or HPLC-MS) in the plasma samples which were obtained from the blood samples. Pharmacokinetic parameters were subsequently ascertained from the plasma concentration time courses which had been obtained in this way. The following Table 2 gives the bioavailability in the different species.

Data set [2] is described as follows: Pharmacokinetic investigation, oral bioavailability in mice. Format: in vivo. To be noted: plasma, Mouse, read-out: Bioavailability following oral administration. The protocol:
as §1

A short description of data set [3]: Pharmacokinetic investigation, oral bioavailability in dogs. Format: in vivo. To be noted: plasma, Dog, read-out: Bioavailability following oral administration. How it is done:
as §1

Data set [4] has as its target T1, adenosine A2b receptor (Homo sapiens, UniProt P29275).
T1 construct: expressed in transfected cells; host or cells: CHO (Chinese Hamster Ovary)
T1 sequence (P29275 1-332): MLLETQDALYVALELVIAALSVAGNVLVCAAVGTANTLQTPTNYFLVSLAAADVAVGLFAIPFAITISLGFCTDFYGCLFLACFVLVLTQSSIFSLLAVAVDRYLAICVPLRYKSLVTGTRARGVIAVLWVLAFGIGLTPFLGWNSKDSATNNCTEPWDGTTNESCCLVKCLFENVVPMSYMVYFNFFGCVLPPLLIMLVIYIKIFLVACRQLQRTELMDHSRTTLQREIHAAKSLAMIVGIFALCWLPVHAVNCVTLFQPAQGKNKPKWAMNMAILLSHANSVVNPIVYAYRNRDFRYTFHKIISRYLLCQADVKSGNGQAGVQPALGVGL
The experiment in a line: Adenosine agonism indirectly by gene expression (luciferase, cAMP-dependent promoter) in transfected CHO cells, A2b. To be noted: read-out: Stimulation of adenosine A2b receptor (% of the maximum stimulation achieved by NECA). The class given is cell-based. The source says:
(§2) Cells of the CHO (Chinese Hamster Ovary) permanent cell line are transfected stably with the cDNA for the adenosine receptor subtypes A1, A2a and A2b. The adenosine A1 receptors are coupled to the adenylate cyclase by way of Gi proteins, while the adenosine A2a and A2b receptors are coupled by way of Gs proteins. In correspondence with this, the formation of cAMP in the cell is inhibited or stimulated, respectively. After that, expression of the luciferase is modulated by way of a cAMP-dependent promoter. The luciferase test is optimized, with the aim of high sensitivity and reproducibility, low variance and good suitability for implementation on a robot system, by varying several test parameters, such as cell density, duration of the growth phase and the test incubation, forskolin concentration and medium composition. The following test protocol is used for pharmacologically characterizing cells and for the robot-assisted substance test screening.
(§3) The stock cultures are grown, at 37° C. and under 5% CO2, in DMEM/F12 medium containing 10% FCS (foetal calf serum) and in each case split 1:10 after 2–3 days. The test cultures are seeded in 384-well plates at the rate of from 1 000 to 3 000 cells per well and grown at 37° C. for approx. 48 hours. The medium is then replaced with a physiological sodium chloride solution (130 mM sodium chloride, 5 mM potassium chloride, 2 mM calcium chloride, 20 mM HEPES, 1 mM magnesium chloride 6H2O, 5 mM NaHCO3, pH 7.4). The substances, which are dissolved in DMSO, are diluted 1:10 three times with this physiological sodium chloride solution and pipetted into the test cultures (maximum final concentration of DMSO in the test mixture: 0.5%). In this way, final substance concentrations of, for example, from 5 μM to 5 nM are obtained. 10 minutes later, forskolin is added to the A1 cells and all the cultures are subsequently incubated at 37° C. for four hours. After that, 35 μl of a solution which is composed of 50% lysis reagent (30 mM disodium hydrogenphosphate, 10% glycerol, 3% TritonX100, 25 mM TrisHCl, 2 mM dithiothreitol (DTT), pH 7.8) and 50% luciferase substrate solution (2.5 mM ATP, 0.5 mM luciferin, 0.1 mM coenzyme A, 10 mM tricine, 1.35 mM magnesium sulphate, 15 mM DTT, pH 7.8) are added to the test cultures, the plates are shaken for approx. 1 minute and the luciferase activity is measured using a camera system.
(§4) The table gives the % values of the corresponding reference stimulus. The measured values for the A2a and A2b receptors are values in per cent of the maximum stimulation achieved by NECA; the measured values for the A1 receptor are values in per cent following direct prestimulation of the adenylate cyclase with 1 μmolar forskolin (corresponds to the 100% value).

In data set [5] the target is T2, adenosine A1 receptor (Homo sapiens, UniProt P30542).
T2 construct: expressed in transfected cells; host or cells: CHO (Chinese Hamster Ovary)
T2 sequence (P30542 1-326): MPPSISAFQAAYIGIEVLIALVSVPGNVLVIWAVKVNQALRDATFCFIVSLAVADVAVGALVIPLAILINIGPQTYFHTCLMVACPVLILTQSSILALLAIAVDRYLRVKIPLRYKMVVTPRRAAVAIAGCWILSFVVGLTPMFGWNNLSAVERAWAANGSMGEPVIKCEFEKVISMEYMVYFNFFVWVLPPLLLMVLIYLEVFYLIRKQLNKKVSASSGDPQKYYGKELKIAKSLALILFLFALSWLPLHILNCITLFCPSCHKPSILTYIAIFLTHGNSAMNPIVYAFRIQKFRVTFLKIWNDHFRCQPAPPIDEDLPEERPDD
The experiment in a line: Adenosine agonism indirectly by gene expression (luciferase, cAMP-dependent promoter) in transfected CHO cells, A1. To be noted: 1 μmolar forskolin = 100%, agonists give less than 100%. Format: cell-based.
Source text: as §2, §3, §4

Data set [6] addresses T3, adenosine A2a receptor (Homo sapiens, UniProt P29274).
T3 construct: expressed in transfected cells; host or cells: CHO (Chinese Hamster Ovary)
The experiment in a line: Adenosine agonism indirectly by gene expression (luciferase, cAMP-dependent promoter) in transfected CHO cells, A2a. The class given is cell-based. To be noted: read-out: Stimulation of adenosine A2a receptor (% of the maximum stimulation achieved by NECA).
Source text: as §2, §3, §4

The subject of data set [7] is heart. The experiment in a line: Cardiovascular effect: heart rate of isolated rat heart in Langerdorff apparatus. To be noted: isolated perfused rat heart. How it is done:
After the thorax has been opened, the heart is rapidly removed from anaesthetized rats and introduced into a conventional Langerdorff apparatus. The coronary arteries are perfused at constant volume (10 ml/min), and the resulting perfusion pressure is recorded by way of an appropriate pressure sensor. In this set-up, a decrease in the perfusion pressure corresponds to a relaxation of the coronary arteries. At the same time, the pressure which the heart develops during each contraction is measured by way of a balloon, which has been introduced into the left ventricle, and a second pressure sensor. The frequency of the heart, which is beating in isolation, is calculated from the number of contractions per time unit.
In this experimental set-up, the following values were obtained for the reduction in heart rate (the stated percentage refers to the reduction of the heart rate in per cent at the concentration in question): […]

The mark [8] stands for this setting: at a concentration of 10^−6 g/ml.
The mark [9] stands for this setting: at a concentration of 10^−7 g/ml.

T3 sequence (P29274 whole entry): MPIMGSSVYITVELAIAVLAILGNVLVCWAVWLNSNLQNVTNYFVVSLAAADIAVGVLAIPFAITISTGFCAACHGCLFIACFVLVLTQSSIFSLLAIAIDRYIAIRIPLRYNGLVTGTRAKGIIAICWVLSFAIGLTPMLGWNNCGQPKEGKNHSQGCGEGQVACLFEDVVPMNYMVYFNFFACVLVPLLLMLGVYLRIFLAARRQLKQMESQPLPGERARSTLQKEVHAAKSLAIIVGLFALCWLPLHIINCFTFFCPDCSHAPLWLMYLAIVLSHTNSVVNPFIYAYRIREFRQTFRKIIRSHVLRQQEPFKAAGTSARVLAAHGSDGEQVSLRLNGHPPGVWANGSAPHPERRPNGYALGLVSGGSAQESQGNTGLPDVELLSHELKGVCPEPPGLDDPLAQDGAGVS

Consider `N#Cc1c(N)nc(SCc2csc(-c3ccc(Cl)cc3)n2)c(C#N)c1-c1ccc(OCCO)cc1` [Example 6, 2-Amino-6-({[2-(4-chlorophenyl)-1,3-thiazol-4-yl]methyl}sulphanyl)-4-[4-(2-hydroxyethoxy)phenyl]pyridine-3,5-dicarbonitrile], for which the results for the bioavailability in data set [1], in data set [2] (at 3 mg/kg p.o.) and in data set [3] (at 1 mg/kg p.o.) were 42.3%, 41.3% and 28.5%, respectively. Besides, the Emax stood at 0% in data set [4] (0.3 nmol); 3% in data set [4] (1 nmol); 29% in data set [4] (10 nmol); 0% in data set [6] (0.3 nmol); 4% in data set [6] (1 nmol); 2% in data set [6] (10 nmol). The “Stimulation of adenosine A1 receptor (luciferase activity in % of forskolin prestimulation)” value in data set [5] (0.3 nmol) was found to be 45%; in data set [5] (1 nmol), 25%; in data set [5] (10 nmol) it was 7%. The “Reduction of the heart rate in percent” value in data set [7] (setting [8]) was 20.0%; in data set [7] (setting [9]), 15.5%.

In the case of `COCCOc1ccc(-c2c(C#N)c(N)nc(SCc3cccnc3)c2C#N)cc1` [Example 1, 2-Amino-4-[4-(2-methoxyethoxy)phenyl]-6-[(3-pyridinylmethyl)sulphanyl]pyridine-3,5-dicarbonitrile], the figures for the bioavailability in data set [1], in data set [2] (at 1 mg/kg p.o.) and in data set [3] (at 3 mg/kg p.o.) were 5%, 31.5% and 32.6%, respectively. Moreover, the Emax in data set [4] (0.3 nmol) was 2%; in data set [4] (1 nmol), 6%; in data set [4] (10 nmol) it was 8%; in data set [6] (0.3 nmol), -1%; in data set [6] (1 nmol) it was 2%; in data set [6] (10 nmol), -2%. Also, the “Stimulation of adenosine A1 receptor (luciferase activity in % of forskolin prestimulation)” value amounted to 56% in data set [5] (0.3 nmol), 11% in data set [5] (1 nmol) and 4% in data set [5] (10 nmol). Further, the “Reduction of the heart rate in percent” value is 17.5% in data set [7] (setting [8]) and 15.0% in data set [7] (setting [9]).

Source of the values: patent publication US7109218B2, “Substituted 2-thio-3,5-dicyano-4-phenyl-6-aminopyridines and the use of the same” (Bayer HealthCare AG, priority 2001, dated 2006).
